Data reported in patent US8461083B2, “Herbicidal compounds” (Syngenta Limited, priority 2008, dated 2013).

How the values were obtained:
Assay type in all cases: in vivo
[1] = tested on: Echinochloa crus-galli (ECHCG); test: Post-emergence herbicidal glasshouse test; conditions: post-emergence (sprayed after 8 days cultivation), evaluated after 13 days, 100=total damage to plant, 0=no damage to plant; for POST Application ECHCG, damage to plant: 1000 g/ha; for pest or weed control at 1000 g/ha: Echinochloa crus-galli, 312 h, read-out: POST Application ECHCG, damage to plant
Method: (§1) Seeds of a variety of test species were sown in standard soil in pots (Alopecurus myosuroides (ALOMY), Setaria faberi (SETFA), Echinochloa crus-galli (ECHCG), Solanum nigrum (SOLNI) and Amaranthus retoflexus (AMARE)). After cultivation for one day (pre-emergence) or after 8 days cultivation (post-emergence) under controlled conditions in a glasshouse (at 24/16° C., day/night; 14 hours light; 65% humidity), the plants were sprayed with an aqueous spray solution derived from the formulation of the technical active ingredient in acetone/water (50:50) solution containing 0.5% Tween 20 (polyoxyethelyene sorbitan monolaurate, CAS RN 9005-64-5). Compounds were applied at 1000 g/ha. The test plants were then grown in a glasshouse under controlled conditions in a glasshouse (at 24/16° C., day/night; 14 hours light; 65% humidity) and watered twice daily. After 13 days for pre and post-emergence, the test was evaluated (100=total damage to plant; 0=no damage to plant).

[2] = tested on: Setaria faberi (SETFA); test: Post-emergence herbicidal glasshouse test; conditions: post-emergence (sprayed after 8 days cultivation), evaluated after 13 days, 100=total damage to plant, 0=no damage to plant; for POST Application SETFA, damage to plant: 1000 g/ha; for pest or weed control at 1000 g/ha: Setaria faberi, 312 h, read-out: POST Application SETFA, damage to plant
Method: as §1

[3] = tested on: Alopecurus myosuroides (ALOMY); test: Post-emergence herbicidal glasshouse test; conditions: post-emergence (sprayed after 8 days cultivation), evaluated after 13 days, 100=total damage to plant, 0=no damage to plant; for POST Application ALOMY, damage to plant: 1000 g/ha; for pest or weed control at 1000 g/ha: Alopecurus myosuroides, 312 h, read-out: POST Application ALOMY, damage to plant
Method: as §1

[4] = tested on: Solanum nigrum (SOLNI); test: Post-emergence herbicidal glasshouse test; conditions: post-emergence (sprayed after 8 days cultivation), evaluated after 13 days, 100=total damage to plant, 0=no damage to plant; for POST Application SOLNI, damage to plant: 1000 g/ha; for pest or weed control at 1000 g/ha: Solanum nigrum, 312 h, read-out: POST Application SOLNI, damage to plant
Method: as §1

[5] = tested on: Amaranthus retoflexus (AMARE); test: Post-emergence herbicidal glasshouse test; conditions: post-emergence (sprayed after 8 days cultivation), evaluated after 13 days, 100=total damage to plant, 0=no damage to plant; for POST Application AMARE, damage to plant: 1000 g/ha; for pest or weed control at 1000 g/ha: Amaranthus retroflexus, 312 h, read-out: POST Application AMARE, damage to plant
Method: as §1

[6] = tested on: Echinochloa crus-galli (ECHCG); test: Pre-emergence herbicidal glasshouse test; conditions: pre-emergence (sprayed after one day cultivation), evaluated after 13 days, 100=total damage to plant, 0=no damage to plant; for PRE Application ECHCG, damage to plant: 1000 g/ha; for pest or weed control at 1000 g/ha: Echinochloa crus-galli, 312 h, read-out: PRE Application ECHCG, damage to plant
Method: as §1

[7] = tested on: Setaria faberi (SETFA); test: Pre-emergence herbicidal glasshouse test; conditions: pre-emergence (sprayed after one day cultivation), evaluated after 13 days, 100=total damage to plant, 0=no damage to plant; for PRE Application SETFA, damage to plant: 1000 g/ha; for pest or weed control at 1000 g/ha: Setaria faberi, 312 h, read-out: PRE Application SETFA, damage to plant
Method: as §1

[8] = tested on: Alopecurus myosuroides (ALOMY); test: Pre-emergence herbicidal glasshouse test; conditions: pre-emergence (sprayed after one day cultivation), evaluated after 13 days, 100=total damage to plant, 0=no damage to plant; for PRE Application ALOMY, damage to plant: 1000 g/ha; for pest or weed control at 1000 g/ha: Alopecurus myosuroides, 312 h, read-out: PRE Application ALOMY, damage to plant
Method: as §1

[9] = tested on: Solanum nigrum (SOLNI); test: Pre-emergence herbicidal glasshouse test; conditions: pre-emergence (sprayed after one day cultivation), evaluated after 13 days, 100=total damage to plant, 0=no damage to plant; for PRE Application SOLNI, damage to plant: 1000 g/ha; for pest or weed control at 1000 g/ha: Solanum nigrum, 312 h, read-out: PRE Application SOLNI, damage to plant
Method: as §1

[10] = tested on: Amaranthus retoflexus (AMARE); test: Pre-emergence herbicidal glasshouse test; conditions: pre-emergence (sprayed after one day cultivation), evaluated after 13 days, 100=total damage to plant, 0=no damage to plant; for PRE Application AMARE, damage to plant: 1000 g/ha; for pest or weed control at 1000 g/ha: Amaranthus retroflexus, 312 h, read-out: PRE Application AMARE, damage to plant
Method: as §1

Compound	POST Application ECHCG, damage to plant [1]	POST Application SETFA, damage to plant [2]	POST Application ALOMY, damage to plant [3]	POST Application SOLNI, damage to plant [4]	POST Application AMARE, damage to plant [5]	PRE Application ECHCG, damage to plant [6]	PRE Application SETFA, damage to plant [7]	PRE Application ALOMY, damage to plant [8]	PRE Application SOLNI, damage to plant [9]	PRE Application AMARE, damage to plant [10]	pest or weed control at 1000 g/ha [1] [%]	pest or weed control at 1000 g/ha [2] [%]	pest or weed control at 1000 g/ha [3] [%]	pest or weed control at 1000 g/ha [4] [%]	pest or weed control at 1000 g/ha [5] [%]	pest or weed control at 1000 g/ha [6] [%]	pest or weed control at 1000 g/ha [7] [%]	pest or weed control at 1000 g/ha [8] [%]	pest or weed control at 1000 g/ha [9] [%]	pest or weed control at 1000 g/ha [10] [%]
Cc1cc(Cn2c(=O)ccc3cc(C(=O)C4C(=O)CCCC4=O)c(C(F)(F)F)nc32)no1 [Compound 2.1]	80	90	90	90	100	90	90	80	90	90										
CCc1nc2nc(C(F)(F)F)ccc2cc1C(=O)C1C(=O)CCCC1=O [Compound 1.107, 2-[2-ethyl-7-trifluoromethyl-[1,8]-naphthyridine-3-carbony]-cyclohexane-1,3-dione]											80	90	50	100	100	100	100	30	90	100
Cc1c(F)cnc2nc(C(F)(F)F)c(C(=O)C3C(=O)CCCC3=O)cc12 [Compound 1.62, 2-[6-Fluoro-5-methyl-2-trifluoromethyl-[1,8]-naphthyridine-3-carbony]-cyclohexane-1,3-dione]											70	70	0	80	50	50	30	0	60	20
C/C=C/c1nc2nc(C(F)(F)F)c(C(=O)C3C(=O)CCCC3=O)cc2cc1F [Compound 1.72, 2-(6-fluoro-7-[(E)(prop-1-enyl)]-2-trifluoromethyl-[1,8]-naphthyridine-3-carbony)-cyclohexane-1,3-dione]	70	80	50	60	70	90	90	30	90	60										
CN(Cc1nc2nc(C(F)(F)F)ccc2cc1C(=O)C1C(=O)CCCC1=O)S(C)(=O)=O [Compound 1.108, 2-[{methanesulfonyl-N-methylaminomethyl}-7-trifluoromethyl-[1,8]-naphthyridine-3-carbony]-cyclohexane-1,3-dione]	80	80	20	90	70	70	40	0	90	80										
O=C1CCCC(=O)C1C(=O)c1cc2ccc(=O)n(CCF)c2nc1C(F)(F)F [Compound 2.11, 2-{8-(2-fluoroethyl)-7-oxo-7,8-dihydro-2-trifluoromethyl-[1,8]-naphthyridine-3-carbony}-cyclohexane-1,3-dione]	90	90	90	100	100	100	90	40	100	60										
O=C1CCCC(=O)C1C(=O)c1cc2ccc(=O)n(CCC=C(F)F)c2nc1C(F)(F)F [Compound 2.2, 2-{8-(4,4-difluorobut-3-enyl)-7-oxo-7,8-dihydro-2-trifluoromethyl-[1,8]-naphthyridine-3-carbony}-cyclohexane-1,3-dione]	90	90	70	100	100	90	90	60	90	70										
CS(=O)(=O)c1ccc2cc(C(=O)C3C(=O)CCCC3=O)c(C(F)(F)F)nc2n1 [Compound 1.20]											90	100	20	100	80	70	80	20	100	30
COCc1nc2nc(C(F)(F)F)ccc2cc1C(=O)C1C(=O)CCCC1=O [Compound 1.100, 2-[2-(methoxymethyl)-7-trifluoromethyl-[1,8]-naphthyridine-3-carbony]-cyclohexane-1,3-dione]	80	80	40	80	90	100	100	20	100	100										
O=C1CCCC(=O)C1C(=O)c1cc2cc(F)c(NCC(F)(F)F)nc2nc1C(F)(F)F [Compound 1.90, 2-[6-fluoro-7-(2,2,2-trifluoroethylamino)-2-trifluoromethyl-[1,8]-naphthyridine-3-carbony]-cyclohexane-1,3-dione]											90	90	80	90	80	100	100	70	100	100
CCOc1nc2nc(C(F)(F)F)c(C(=O)C3C(=O)C4CCC(C4)C3=O)cc2cc1F (stereo not drawn) [Compound 3.4]											80	90	70	90	70	100	100	70	100	100
Cc1nc2nc(C(F)(F)F)c(C(=O)C3C(=O)CCCC3=O)cc2c(C)c1F [Compound 1.88, 2-[5,7-dimethyl-6-fluoro-2-trifluoromethyl-[1,8]-naphthyridine-3-carbony]-cyclohexane-1,3-dione]											90	80	30	90	100	100	100	40	100	90
